Data: patent US10428082B2, “Triazole derivatives of melampomagnolide B and methods of use thereof” (BioVentures, LLC, priority 2016, dated 2019)

Key:
HO-1 = assay: Induction of HO-1 by Western blot assay; format: cell-based
[1] = system: primary AML cell line AML1; assay: Anti-leukemic activity, Annexin V/7-AAD flow cytometry; format: cell-based, human; settings: for EC50: Homo sapiens, AML1, 24 h, 24 h of drug exposure, read-out: AML#1 (EC50)
Protocol: (§1) The newly synthesized triazole derivatives of melampomagnolide B were screened for anti-leukemic activity against M9 ENL1 and primary AML cell lines; the latter were obtained with informed consent from human patients. Evaluations were performed after 24 h of drug exposure using flow cytometric analysis by labeling with Annexin V and 7-aminoactinomycin D (7-AAD) to delineate apoptotic cell populations. In all experiments PTL was included as a reference control.

[2] = system: primary AML cell line AML2; assay: as above; format: cell-based, human; settings: for EC50: Homo sapiens, 24 h, 24 h of drug exposure, read-out: AML#2 (EC50)
Protocol: as §1

NF-κB pathway = assay: NF-κB inhibition by Western blot, phosphorylation of the P65 subunit; format: cell-based
Protocol: Also JVM 4-29 was evaluated for NF-κB inhibition by Western blot analysis; by determining its effect on the phosphorylation of the P65 subunit.

SK-MEL-2 = assay: NCI 60 growth inhibition; format: cell-based, human; settings: Homo sapiens; SK-MEL-2, Melanoma, Table 2
PC-3 = assay: NCI 60 growth inhibition; format: cell-based, human; settings: Homo sapiens; PC-3, Prostate Cancer, Table 2
CCRF-CEM = assay: NCI 60 growth inhibition; format: cell-based, human; settings: Homo sapiens, Leukemia, Table 2
SN12C = assay: NCI 60 growth inhibition; format: cell-based, human; settings: Homo sapiens, Renal Cancer, Table 2
SF-268 = assay: NCI 60 growth inhibition; format: cell-based, human; settings: Homo sapiens; SF-268, CNS Cancer, Table 2
MALME-3M = assay: NCI 60 growth inhibition; format: cell-based, human; settings: Homo sapiens, Melanoma, Table 2
MOLT-4 = assay: NCI 60 growth inhibition; format: cell-based, human; settings: Homo sapiens; MOLT-4, Leukemia, Table 2
HCC-2998 = assay: NCI 60 growth inhibition; format: cell-based, human; settings: Homo sapiens; HCC-2998, Colon Cancer, Table 2
UACC-257 = assay: NCI 60 growth inhibition; format: cell-based, human; settings: Homo sapiens; UACC-257, Melanoma, Table 2
SNB-75 = assay: NCI 60 growth inhibition; format: cell-based, human; settings: Homo sapiens; SNB-75, CNS Cancer, Table 2
HCT-116 = assay: NCI 60 growth inhibition; format: cell-based, human; settings: Homo sapiens; HCT-116, Colon Cancer, Table 2
SK-MEL-5 = assay: NCI 60 growth inhibition; format: cell-based, human; settings: Homo sapiens; SK-MEL-5, Melanoma, Table 2
SW-620 = assay: NCI 60 growth inhibition; format: cell-based, human; settings: Homo sapiens; SW-620, Colon Cancer, Table 2
NCI-H322M = assay: NCI 60 growth inhibition; format: cell-based, human; settings: Homo sapiens, Non-Small Cell Lung Cancer, Table 2
NCI/ADR-RES = assay: NCI 60 growth inhibition; format: cell-based, human; settings: Homo sapiens, Ovarian Cancer, Table 2
OVCAR-5 = assay: NCI 60 growth inhibition; format: cell-based, human; settings: Homo sapiens; OVCAR-5, Ovarian Cancer, Table 2
SF-539 = assay: NCI 60 growth inhibition; format: cell-based, human; settings: Homo sapiens; SF-539, CNS Cancer, Table 2
LOX IMVI = assay: NCI 60 growth inhibition; format: cell-based, human; settings: Homo sapiens, Melanoma, Table 2
HCT-15 = assay: NCI 60 growth inhibition; format: cell-based, human; settings: Homo sapiens; HCT-15, Colon Cancer, Table 2
KM12 = assay: NCI 60 growth inhibition; format: cell-based, human; settings: Homo sapiens; KM12, Colon Cancer, Table 2
MDA-MB-468 = assay: NCI 60 growth inhibition; format: cell-based, human; settings: Homo sapiens; MDA-MB-468, Breast Cancer, Table 2
SNB-19 = assay: NCI 60 growth inhibition; format: cell-based, human; settings: Homo sapiens; SNB-19, CNS Cancer, Table 2
SR = assay: NCI 60 growth inhibition; format: cell-based, human; settings: Homo sapiens, Leukemia, Table 2
OVCAR-8 = assay: NCI 60 growth inhibition; format: cell-based, human; settings: Homo sapiens; OVCAR-8, Ovarian Cancer, Table 2
TK-10 = assay: NCI 60 growth inhibition; format: cell-based, human; settings: Homo sapiens; TK-10, Renal Cancer, Table 2

SMILES | EC50 [1] | EC50 [2] | GI50 (SK-MEL-2) | GI50 (PC-3) | GI50 (CCRF-CEM) | GI50 (SN12C) | GI50 (SF-268) | GI50 (MALME-3M) | GI50 (MOLT-4) | GI50 (HCC-2998) | GI50 (UACC-257) | GI50 (SNB-75) | GI50 (HCT-116) | GI50 (SK-MEL-5) | GI50 (SW-620) | GI50 (NCI-H322M) | GI50 (NCI/ADR-RES) | GI50 (OVCAR-5) | GI50 (SF-539) | GI50 (LOX IMVI) | also measured
C=C1C(=O)O[C@H]2[C@H]1CC/C(Cn1cc(-c3cc(C(F)(F)F)cc(C(F)(F)F)c3)nn1)=C\CC[C@@]1(C)O[C@@H]21 [JVM 4-29, (1aR,7aS,10aS,10bS,E)-5-((4-(3,5-bis(Trifluoromethyl)phenyl)-1H-1,2,3-triazol-1-yl)methyl)-1a-methyl-8-methylene-2,3,6,7,7a,8,10a,10b-octahydrooxireno[2′,3′:9,10]cyclodeca[1,2-b]furan-9(1aH)-one] | 400 nM | 700 nM | 340 nM | 830 nM | 690 nM | 700 nM | 1080 nM | 520 nM | 190 nM | 1170 nM | 1460 nM | 1260 nM | 150 nM | 1470 nM | 190 nM | 1670 nM | 1050 nM | 1100 nM | 170 nM | 150 nM | induction of HO-1 compared to PTL (HO-1): stronger induction of HO-1 when compared to PTL; fold more cytotoxic compared to DMAPT ([1]; primary cell line AML1): 36.7 fold; fold more potent anti-leukemic activity than PTL ([1]; primary cell line AML1): 32.7 fold; fold more potent than the MMB ([1]; primary cell line AML1): 51.2 fold; fold more cytotoxic compared to DMAPT ([2]; primary cell line AML2): 16.1 fold; fold more potent anti-leukemic activity than PTL ([2]; primary cell line AML2): 14.8 fold; fold more potent than the MMB ([2]; primary cell line AML2): 34.7 fold; inhibition of the NF-κB pathway compared to parthenolide (NF-κB pathway): significantly more potency as an inhibitor of the NF-κB pathway when compared to parthenolide; GI50 (HCT-15): 190 nM; GI50 (KM12): 1040 nM; GI50 (MDA-MB-468): 420 nM; GI50 (SNB-19): 1710 nM; GI50 (SR): 100 nM; GI50 (OVCAR-8): 880 nM
C=C1C(=O)O[C@H]2[C@H]1CC/C(Cn1cc(-c3ccc(F)cc3)nn1)=C\CC[C@@]1(C)O[C@@H]21 [JVM 4-26] | 1100 nM | 1900 nM | 1830 nM | 2000 nM | 240 nM | 1640 nM | 1690 nM | 1400 nM | 380 nM | 1740 nM | 1470 nM | 1250 nM | 290 nM | 1740 nM | 420 nM | 4390 nM | 3050 nM | 1470 nM | 270 nM | 900 nM | GI50 (TK-10): 1240 nM; GI50 (HCT-15): 280 nM; GI50 (KM12): 1700 nM; GI50 (MDA-MB-468): 420 nM; GI50 (SNB-19): 3390 nM; GI50 (SR): 250 nM; GI50 (OVCAR-8): 1660 nM
C=C1C(=O)O[C@H]2[C@H]1CC/C(Cn1cc(-c3cccc(Cl)c3)nn1)=C\CC[C@@]1(C)O[C@@H]21 [JVM 4-25, (1aR,7aS,10aS,10bS,E)-5((4-(3-Chlorophenyl)-1H-1,2,3-triazol-1-yl)methyl)-1a-methyl-8-methylene-2,3,6,7,7a,8,10a,10b-octahydrooxireno[2′,3′:9,10]cyclodeca[1,2-b]furan-9(1aH)-one] | 1000 nM | 1700 nM | 1660 nM | 1980 nM | 200 nM | 1400 nM | 1590 nM | 1200 nM | 310 nM | 1640 nM | 1420 nM | 1160 nM | 160 nM | 1700 nM | 330 nM | 2170 nM | 2390 nM | 1210 nM | 250 nM | 280 nM | GI50 (TK-10): 990 nM; GI50 (HCT-15): 190 nM; GI50 (KM12): 1780 nM; GI50 (MDA-MB-468): 560 nM; GI50 (SNB-19): 2400 nM; GI50 (SR): 230 nM; GI50 (OVCAR-8): 1310 nM
